Values quoted from earlier work as cited in patent US10760135B2, “Methods for predicting pancreatic cancer treatment response” (priority 2016, dated 2020).
Counter-ions that a name gives are not always drawn.

Test system: advanced PDAC
Details: first-line treatment, patients with advanced PDAC

Nc1ccn([C@@H]2O[C@H](CO)[C@@H](O)C2(F)F)c(=O)n1 [Gemcitabine, 1-(2′-Deoxy-2′,2′-difluoro-[beta]-D-ribofuranosyl)-4-aminopyrimidin-2-one hydrochloride]
5-year survival rate: 2%
